From paper PMC6394990, “Detailed characterization of the solution kinetics and thermodynamics of biotin, biocytin and HABA binding to avidin and streptavidin” (PLoS ONE, 2019)
Several values for one entry are separate records, joined by “and”; a condition that tells them apart may be missing. Equal values may be shown once.

Key:
[1] = Fluorescence lifetimes, unbound probe; assay type: physicochemical; details: unbound dye; t for BFl and BcO, average lifetime for B-DNAds*Fl; in ns
Procedure: (§1) The lifetimes (τ), steady state anisotropies (rss), time-resolved anisotropies (rt) and quantum yields (QY) of the complexes (at 20 ± 0.1°C and pH 8) were collected with a dye-labeled B7 probe concentration of 20–40 nM and 1040–2080 nM of either protein (AV or SAV) to ensure that only one binding site in the tetramer was filled with a ligand (AB1 filling model).
The lifetimes were collected in a FluoTime100 fluorescence spectrometer (PicoQuant, GmbH, Berlin, Germany) with the excitation light source provided by a picosecond pulsed diode laser (PicoQuant, GmbH, Berlin, Germany) at 470 nm and 20 MHz. The emission was collected at 520 nm through a non-fluorescing 520 nm interference filter (Oriel Corp., Stratford, CT) followed by a liquid filter of 1cm path length containing 24 mM acetate buffered dichromate at pH 4, between the sample and detector to eliminate traces of excitation light. The fluorescence decays were fit by a nonlinear least-squares minimization based on the Marquardt algorithm embedded in the Fluofit software (PicoQuant GmbH). […] The PicoQuant G factor was calculated according to: G = ∫HV(t)dt/∫HH(t)dt, where HV(t) and HH(t) were the decays collected with the emission polarizer selecting vertical and horizontal E-vector passing orientations, respectively, and the excitation polarizer set at horizontally position.

[2] = target: T1, de-glycosylated AV (Gallus gallus, UniProt P02701); assay: Stopped-flow association kinetics with endoglycosidase H de-glycosylated avidin; assay type: binding
T1 construct: purchased Calbiochem (La Jolla, CA)
Procedure: These reactions were carried out in a buffered solution of 10 mM Tris-HCl, 100 mM KCl, 2.5 mM MgCl2 and 1 mM CaCl2 at pH 8 and only AV-BcO reactions included pH 9 and 10. The concentrations, after mixing, were of 20 nM of dye-labeled B7 probe and 260 nM, 520 nM or 1040 nM of AV; and 200 nM, 300 nM, 400 nM or 800 nM of SAV at temperatures of 10, 15, 20 and 25°C. The deglycosylation of AV (for comparative association reactions) was carried out using the provided standard protocol with endoglycosidase H [47], both with and without incubation of a denaturant solution (2% SDS and 1M 2-mercaptoethanol).
The reactions were collected with the SF instrument, described previously. The fluorescence signal was collected through a 520 nm interference filter (Oriel Corp., Stratford, CT) with a detector time constant and SF dead time of 1 μs and 1 ms, respectively. The excitation light was provided by the Coherent Ar^+ ion laser (described above) at 488 nm with […] of incident power on the reaction cuvette. The laser source was followed by the photo-elastic modulator described above with the axis oriented 45^o with respect to the electric vector of the incident light and with the half-wave modulation (50 kHz) set for 488 nm excitation. The demodulation circuitry following the photomultiplier provided a DC(t) and a rectified AC(t) which were converted to digital data by a high-speed digitizer (PCI-5122) from National Instruments (Austin, TX) with 14-bit resolution and 100 MHz bandwidth, through channels 0 and 1. The data acquisition was controlled by LabVIEW (Vr 8) software at a collection rate of 6120 data points/second and stored in spreadsheets. The AC(t) and DC(t) data were baseline corrected before obtaining the signal ratio (Eq 4) as a function of time (ρt).

[3] = target: T2, streptavidin (SAV) (Streptomyces avidinii, UniProt P22629); assay: Quantum yields (QY), SAV complex; assay type: physicochemical; details: for dQY-SAV: fractional change of QY, SAV complex against dye
T2 construct: purchased Sigma Aldrich (St. Louis, MO)
Procedure: as §1
(§2) The QY values were obtained by using a reference fluorophore of known quantum yield and were calculated according to Parker and Rees, where the reference dye was fluorescein in 0.1N sodium hydroxide solution [46]. The emission fluorescence scans were collected from 480 nm to 700 nm with the excitation light set at 460 nm provided by the xenon arc lamp described above. These measurements were made on the AB1 complexes at high protein concentration.

[4] = target: T2, streptavidin (SAV); assay: Intrinsic lifetime, dynamic quantum yield and fraction of non-statically quenched molecules, SAV complex; assay type: physicochemical; details: for 1-S (4) = QY/F, fraction of non-statically quenched molecules / F (3) = Sat/t° / S / t° (2), intrinsic lifetime of the fluorescence dye: complex with SAV
[5] = Absorbance and fluorescence emission spectra, unbound probe; assay type: physicochemical; details: unbound dye
Procedure: as §1, §2
Supplementary file pone.0204194.s001.docx: S1 Fig Absorbance spectra of dye-labeled B7 probes and respective complexes with AV and SAV. […] The spectra are normalized to the calculated molar absorptivies. […] The labeled probes and protein concentrations were 1 μM and 10 μM, respectively. (DOCX) Click here for additional data file.
Supplementary file pone.0204194.s002.docx: S2 Fig Fluorescence emission spectra of dye-labeled B7 and respective complexes with AV and SAV. […] The probe and protein concentrations were 20 nM and 1040 nM (AB1 filling model), respectively. (DOCX) Click here for additional data file.

[6] = target: T3, avidin (AV) (Gallus gallus, UniProt P02701); assay: Intrinsic lifetime, dynamic quantum yield and fraction of non-statically quenched molecules, AV complex; assay type: physicochemical; details: for Dynamic Quantum Yield Φ / Fraction of Non-Statically Quenched Dye 1-S / Natural Lifetime τ°: AV complex (AB1); for 1-S (4) = QY/F, fraction of non-statically quenched molecules / F (3) = Sat/t° / S / t° (2), intrinsic lifetime of the fluorescence dye: complex with AV; for t° (2), intrinsic lifetime of the fluorescence dye: in ns
T3 construct: purchased Calbiochem (La Jolla, CA)

[7] = SAV complex, mono-ionic fluorescein species

T2 sequence (P22629 25-183): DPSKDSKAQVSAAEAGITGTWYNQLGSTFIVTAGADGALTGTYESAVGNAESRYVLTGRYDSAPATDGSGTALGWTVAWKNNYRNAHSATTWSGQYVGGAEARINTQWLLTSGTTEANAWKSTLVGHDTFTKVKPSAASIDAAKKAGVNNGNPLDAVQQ
T1 sequence (P02701 25-152): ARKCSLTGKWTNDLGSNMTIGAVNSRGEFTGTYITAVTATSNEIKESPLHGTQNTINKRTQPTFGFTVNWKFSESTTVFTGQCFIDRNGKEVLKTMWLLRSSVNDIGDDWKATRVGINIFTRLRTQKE
T3 sequence (P02701 25-152): as above

| Compound | t (1), fluorescence lifetime [1] | QY ([3]; complex with SAV) | dQY-SAV [3] | 1-S (4) = QY/F, fraction of non-statically quenched molecules [4] | F (3) = Sat/t° [4] | S [4] | t° (2), intrinsic lifetime of the fluorescence dye [4] | Abs (nm) [5] [nm] | Emission (nm) [5] [nm] | Dynamic Quantum Yield Φ [6] | Fraction of Non-Statically Quenched Dye 1-S [6] | Natural Lifetime τ° [6] | 1-S (4) = QY/F, fraction of non-statically quenched molecules [6] | F (3) = Sat/t° [6] | S [6] | t° (2), intrinsic lifetime of the fluorescence dye [6] | also measured |
| --- | --- | --- | --- | --- | --- | --- | --- | --- | --- | --- | --- | --- | --- | --- | --- | --- | --- |
| O=C(CCCC[C@@H]1SC[C@@H]2NC(=O)N[C@@H]21)NCCNC(=O)c1ccc(-c2c3ccc(=O)cc-3oc3cc(O)ccc23)c(C(=O)O)c1 [BFl, Biotin-4-fluorescein] | 4.03 ± 0.01 | 0.11 and 0.11 ± 0.01 | -0.7885 | 0.14 and 0.14 ± 0.02 | 0.80 ± 0.02 | 0.86 | 4.6 ± 0.1 | 494 | 530 | 0.90 ± 0.02 | 0.49 ± 0.03 | 4.7 ± 0.1 | 0.49 and 0.49 ± 0.03 | 0.90 ± 0.02 | 0.51 | 4.7 ± 0.1 | ln(k) ([2]; deAV 15C (288.15 K), pH8): 15.5; k(average) ([2]; deAV 15C (288.15 K), pH8, full value): 5.36E+06; k(average) ([2]; deAV 15C (288.15 K), pH8, scaled): 5.4; 488, correction, absR/abs ([3]; complex with SAV): 1.708; QY multiplied by the 488 correction absR/abs ([3]; complex with SAV): 0.1879; Natural Lifetime τ° ([4]; SAV complex, di-ionic fluorescein species): 4.5 ± 0.1; Fraction of Non-Statically Quenched Dye 1-S [4, 7]: 0.18 ± 0.02; Natural Lifetime τ° [4, 7]: 8.1 ± 0.1 |
| NC(CCCCNC(=O)CCCC[C@@H]1SC[C@@H]2NC(=O)N[C@@H]21)C(=O)NCCCCCNC(=O)c1ccc(-c2c3cc(F)c(=O)cc-3oc3cc(O)c(F)cc23)c(C(=O)O)c1 (stereo partly drawn) [BcO, Oregon green 488 Biocytin] | 3.75 ± 0.04 | 0.21 ± 0.01 and 0.21 | -0.7692 | 0.25 and 0.25 ± 0.02 | 0.83 ± 0.02 | 0.75 | 4.8 ± 0.1 | 495 | 523 | 0.88 ± 0.02 | 0.70 ± 0.03 | 4.9 ± 0.1 | 0.7 and 0.70 ± 0.03 | 0.88 ± 0.02 | 0.3 | 4.9 ± 0.1 | kon ([2]; de-glycosylated AV, 15°C): 3.7e+06 M⁻¹ s⁻¹; Quantum Yield QY ([3]; SAV complex (AB1)): 0.21 ± 0.01; Dynamic Quantum Yield Φ ([4]; SAV complex (AB1)): 0.83 ± 0.02; Fraction of Non-Statically Quenched Dye 1-S ([4]; SAV complex (AB1)): 0.25 ± 0.02; Natural Lifetime τ° ([4]; SAV complex (AB1)): 4.8 ± 0.1 |
